Patent US20050124579A1, “Benzyl alcohol derivatives” (priority 2002, published 2005)
Converted amounts (≈) assume the structure as drawn.

What was measured:
[1] = test system: Staphylococcus aureus ATCC 6538; assay: Determination of the minimum inhibition concentration (MIC value) in microtitre plates; format: cell-based; settings: CASO broth, 37° C., 48 hours, optical density at 620 nm, MIC = <20% growth vs growth control
From the text: (§1) Determination of the Minimum Inhibition Concentration (MIC Value) in Microtitre Plates Nutrient Medium: Casein-soy flour-peptone broth for the preparation of the precultures of the test bacteria and yeast. Examples of Test Microbes: Bacteria: Staphylococcus aureus ATCC 6538 • Escherichia coli NCTC 8196 (=EC) Procedure: The test substances are predissolved in dimethyl sulphoxide (DMSO) and tested in a dilution series of 1:2. The bacteria are cultivated overnight in CASO broth and sponged off with 10 ml of 0.85% sodium chloride solution (+0.1% TritonX-100). All of the test microbes are adjusted to a microbial count of 1-5×10^6 CFU/ml with 0.85% sodium chloride solution. The test substances are prepipetted at 8 μl per well into microtitre plates. Prediluted microbial suspensions are diluted 1:100 in CASO broth and added at 192 μl per well to the test substances. The test mixtures are incubated at 37° C. for 48 hours. After incubation, the growth is determined by reference to the clouding of the test mixtures (optical density) at 620 nm in a microplate reader. The minimum inhibition concentration (MIC value) is the concentration of substance at which (compared with the growth control) a significant growth inhibition (<20% growth) of the test microbes is established. One microtitre plate is prepared per test microbe and substance concentration. All of the substances are tested in duplicate.

[2] = test system: Escherichia coli NCTC 8196; assay: as above; format: cell-based; set-up: unit not given here; settings: CASO broth, 37° C., 48 hours, optical density at 620 nm; MIC = <20% growth vs growth control
From the text: as §1

Row | SMILES | MIC Staphylococcus aureus [1] [ppm] | MIC Escherichia coli [2] | MIC ([1]; Staphylococcus aureus, ATCC6538) [µg/mL]
1 | C[Si](C)(C)CCCOc1ccccc1CO [(3)] | 60 | >120 | 
2 | C[Si](C)(C)COc1ccccc1CO [(4)] | 120 | >120 | 
3 | CCCCCCCCOc1ccccc1CO [(5)] | 60 | >120 | 
4 | CCC(CC)Oc1ccccc1CO [(6)] | 120 | >120 | 
5 | CCCCCC(C)Oc1ccccc1CO (stereo not drawn) [(7)] | 120 | >120 | 
6 | C[Si](C)(C)CCCOc1ccc(CO)cc1 [(8)] | 60 | 60 | 
7 | COCCOCCOc1ccc(CO)cc1 [(9)] | 30 | 60 | 
8 | CCCCCCOc1ccc(CO)cc1 [(10)] | 120 | 60 | 
9 | CCCCCCCCOc1ccc(CO)cc1 [(11)] |  | 15 | 15 (≈ 63.5 µM)
10 | C[Si](C)(C)CCCOc1cccc(CO)c1 [(12)] | 60 | 60 | 
11 | C[Si](C)(COc1cccc(CO)c1)c1ccccc1 [(13)] | 60 | >120 | 
12 | CCCCCCCCOc1cccc(CO)c1 [(14)] | 15 | 30 | 
13 | CCCCCC(C)Oc1cccc(CO)c1 (stereo not drawn) [(15)] | 120 | 120 | 
14 | COc1ccc(OCCC[Si](C)(C)C)c(CO)c1 [(16)] | 15 | >120 | 
15 | COc1ccc(OC[Si](C)(C)C)c(CO)c1 [(17)] | 60 | 60 | 
16 | COc1ccc(OCCOc2ccccc2)c(CO)c1 [(18)] | 120 | 60 | 
17 | CCCCOc1ccc(OC)cc1CO [(19)] | 120 | 60 | 

Row | SMILES | MIC Staphylococcus aureus [1] [ppm] | MIC Escherichia coli [2] | MIC ([1]; Staphylococcus aureus, ATCC6538) [µg/mL]
18 | CCCCCCOc1ccc(OC)cc1CO [(20)] | 60 | 60 | 
19 | CCCCCCCCOc1ccc(OC)cc1CO [(21)] | 30 | 30 | 
20 | CCC(CC)Oc1ccc(OC)cc1CO [(22)] | 60 | 60 | 
21 | CCCCCC(C)Oc1ccc(OC)cc1CO (stereo not drawn) [(23)] | 60 | 60 | 
22 | COc1ccc(OC2CCCCC2)c(CO)c1 [(24)] | 60 | 60 | 
23 | COc1ccc(OCc2ccccc2)c(CO)c1 [(25)] | 120 | 120 | 
24 | CCCCCCCCOc1cccc(OC)c1CO [(26)] | 15 | 15 | 
25 | CCCCCCCCOc1c(CO)cccc1OC [(27)] | 30 | 60 | 
26 | CCCCCCCCOc1ccc(CO)cc1OC [(28)] | 30 | 30 | 
27 | C=CC[Si](C)(C)COc1ccc(CO)cc1OC[Si](C)(C)CC=C [(29)] | 120 | >120 | 
28 | CCCCCCCCOc1ccc(CO)cc1OCCCCCCCC [(30)] | 60 | 60 | 
29 | CCCCCCCCCCCCOc1ccc(CO)cc1OCCCCCCCCCCCC [(31)] | 120 | >120 | 
30 | CCCCCCCCCCCCOc1ccc(CO)c(OCCCCCCCCCCCC)c1 [(32)] | 60 | >120 | 
31 | OCc1ccc(OC2CCCCC2)cc1OC1CCCCC1 [(33)] | 15 | >120 | 
32 | CCCCCCCCOc1ccc(OCCCCCCCC)c(CO)c1 [(34)] | 120 | 60 | 
33 | CCCCCCCCCCCCOc1ccc(OCCCCCCCCCCCC)c(CO)c1 [(35)] | 60 | 120 | 
